Results: US20110034526A1, “Benzimidazole Compounds” (Wyeth LLC, priority 2007, published 2011)
Like-named read-outs stand apart in the source and are kept apart here.

Legend:
ABCA1 gene = assay: Quantitative analysis of ABCA1 gene regulation in THP-1 cells (real-time PCR); type: cell-based, human; details: read-out: EC50 ABCA1
Experimental: The compounds of formula (I) effect on the regulation of the ABCA1 gene was evaluated using the following procedure.
The THP-1 monocytic cell line (ATCC # TIB-202) was obtained from American Type Culture Collection (Manassas, Va.) and cultured in RPMI 1640 medium (Gibco, Carlsbad, Calif.) containing 10% FBS, 2 mM L-glutamine, and 55 uM beta-Mercaptoethanol (BME). […] Differentiated THP-1 cells were treated with test compounds or ligands dissolved in DMSO (Sigma, D-8779) in culture medium lacking phorbal ester. […] Unstimulated cells treated with vehicle were included as negative controls on each plate. An LXR agonist reference, N-(2,2,2-trifluoro-ethyl)-N-[4-(2,2,2-trifluoro-1-hydroxy-1-trifluoromethyl-ethyl)-phenyl]-benzenesulfonamide (Schultz, Joshua R., Genes & Development (2000), 14(22), 2831-2838), was dosed at 1.0 uM and served as a positive control. […] Results of antagonist analysis are expressed as % antagonism and IC50 (in μM).
Total cellular RNA was isolated from treated cells cultured in 96-well plates using PrepStation 6100 (Applied Biosystems, Foster City, Calif.), according to the manufacturer's recommendations. RNA was resuspended in ribonuclease-free water and stored at −70° C. prior to analysis. RNA concentrations were quantitated with RiboGreen test procedure, #R-11490 (Molecular Probes, Eugene, Oreg.).
Gene-specific mRNA quantitation was performed by real-time PCR with the Perkin Elmer Corp. chemistry on an ABI Prism 7700 Sequence detection system (Applied Biosystems, Foster City, Calif.) according to the manufacturer's instructions. Samples (50-100 ng) of total RNA were assayed in duplicate or triplicate in 50 μl reactions using one-step RT-PCR and the standard curve method to estimate specific mRNA concentrations. Sequences of gene-specific primer and probe sets were designed with Primer Express Software (Applied Biosystems, Foster City, Calif.). […] RT and PCR reactions were performed according to PE Applied Biosystem's protocol for Taqman Gold RT-PCR or Qiagen's protocol for Quantitect probe RT-PCR. Relative levels of ABCA1 mRNA are normalized using GAPDH mRNA or 18S rRNA probe/primer sets purchased commercially (Applied Biosystems, Foster City, Calif.).
Mean, standard deviation and statistical significance of duplicate evaluations of RNA samples were assessed using ANOVA, one-way analysis of variance using SAS analysis.

human LXRα = target: T1, human LXRα (Homo sapiens, UniProt Q13133); assay: Ligand-binding test procedure for human LXRα (3H T0901317 tracer, flash plates); details: biotinylated hLXRα, tracer 3H T0901317
T1 construct: biotin (biotinylated); made in house; host or cells: E. coli (crude extract)
T1 sequence (Q13133 1-447): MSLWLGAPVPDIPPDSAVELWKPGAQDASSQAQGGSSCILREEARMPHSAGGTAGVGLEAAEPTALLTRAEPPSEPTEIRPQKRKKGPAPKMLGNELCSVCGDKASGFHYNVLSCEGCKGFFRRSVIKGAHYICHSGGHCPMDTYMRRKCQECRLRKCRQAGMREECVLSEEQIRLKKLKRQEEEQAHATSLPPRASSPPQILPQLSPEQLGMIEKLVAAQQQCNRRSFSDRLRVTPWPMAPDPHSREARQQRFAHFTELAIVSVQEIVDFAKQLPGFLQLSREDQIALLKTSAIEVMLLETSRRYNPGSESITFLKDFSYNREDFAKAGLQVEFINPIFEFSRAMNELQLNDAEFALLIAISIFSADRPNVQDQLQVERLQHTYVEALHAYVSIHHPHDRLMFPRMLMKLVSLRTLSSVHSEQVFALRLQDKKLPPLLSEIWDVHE

human LXRβ = target: T2, human LXRβ (Homo sapiens, UniProt P55055); assay: Ligand-binding test procedure for human LXRβ (3H T0901317 tracer, flash plates)
T2 construct: biotin (biotinylated); made in house; host or cells: E. coli (crude extract)
T2 sequence (P55055 1-460): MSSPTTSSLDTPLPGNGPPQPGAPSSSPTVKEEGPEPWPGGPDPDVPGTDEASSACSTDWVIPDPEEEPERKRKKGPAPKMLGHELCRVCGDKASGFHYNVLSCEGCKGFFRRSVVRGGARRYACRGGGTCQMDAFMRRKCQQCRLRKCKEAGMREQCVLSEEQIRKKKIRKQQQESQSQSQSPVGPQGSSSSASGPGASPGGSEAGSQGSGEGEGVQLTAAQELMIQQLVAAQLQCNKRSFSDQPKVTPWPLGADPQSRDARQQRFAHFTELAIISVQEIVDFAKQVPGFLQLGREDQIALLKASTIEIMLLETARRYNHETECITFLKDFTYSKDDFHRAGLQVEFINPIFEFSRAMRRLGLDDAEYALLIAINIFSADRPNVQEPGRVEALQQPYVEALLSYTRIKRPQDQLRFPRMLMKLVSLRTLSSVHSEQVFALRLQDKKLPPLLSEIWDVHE

[1] = Gene regulation by LXR (Human), differentiated THP-1 cells, 18 hrs, ABCA1 mRNA

Cc1cc(Oc2cccc(S(=O)(=O)C(C)C)c2)ccc1-n1c(C)nc2c(C(F)(F)F)cccc21 [Example 95, 2-methyl-1-(2-methyl-4-{3-[(1-methylethyl)sulfonyl]phenoxy}phenyl)-4-(trifluoromethyl)-1H-benzimidazole]
EC50 (ABCA1 gene; [1]): 409 nM
IC50 (human LXRα): 1290 nM
IC50 (human LXRβ): 61 nM

CCCc1nc2c(C(F)(F)F)cccc2n1-c1cccc(Oc2cccc(S(C)(=O)=O)c2)c1 [Example 27, 1-{3-[3-(methylsulfonyl)phenoxy]phenyl}-2-propyl-4-(trifluoromethyl)-1H-benzimidazole]
EC50 (ABCA1 gene; [1]): 22 nM
IC50 (human LXRα): 3.9 nM
IC50 (human LXRβ): 0.9 nM

COc1ccc(-n2c(C(F)(F)c3ccccc3)nc3c(C(F)(F)F)cccc32)cc1 [Example 74, 2-[difluoro(phenyl)methyl]-1-(4-methoxyphenyl)-4-(trifluoromethyl)-1H-benzimidazole]
EC50 (ABCA1 gene; [1]): 440 nM
IC50 (human LXRα): 635 nM
IC50 (human LXRβ): 32 nM

CS(=O)(=O)c1cccc(Oc2cccc(-n3c(C(F)F)nc4c(C(F)(F)F)cccc43)c2)c1 [Example 33, 2-(difluoromethyl)-1-{3-[3-(methylsulfonyl)phenoxy]phenyl}-4-(trifluoromethyl)-1H-benzimidazole]
EC50 (ABCA1 gene; [1]): 190 nM
IC50 (human LXRα): 36 nM
IC50 (human LXRβ): 2 nM

CC(C)S(=O)(=O)c1cccc(Oc2ccc(-n3c(C(F)(F)F)nc4c(C(F)(F)F)cccc43)cc2)c1 [Example 73, 1-{4-[3-(isopropylsulfonyl)phenoxy]phenyl}-2,4-bis(trifluoromethyl)-1H-benzimidazole]
EC50 (ABCA1 gene; [1]): 470 nM
IC50 (human LXRα): 800 nM
IC50 (human LXRβ): 47 nM

CCS(=O)(=O)c1cccc(Oc2ccc(-n3c(C(F)(F)F)nc4c(C(F)(F)F)cccc43)cc2)c1 [Example 71, 1-{4-[3-(ethylsulfonyl)phenoxy]phenyl}-2,4-bis(trifluoromethyl)-1H-benzimidazole]
EC50 (ABCA1 gene; Homo sapiens, THP-1, 18 h): 290 nM
IC50 (human LXRα): 1100 nM
IC50 (human LXRβ): 83 nM

CS(=O)(=O)c1ccc(Oc2ccc(Cl)c(-n3cnc4c(C(F)(F)F)cccc43)c2)cc1 [Example 83, 1-{2-chloro-5-[4-(methylsulfonyl)phenoxy]phenyl}-4-(trifluoromethyl)-1H-benzimidazole]
EC50 (ABCA1 gene; Homo sapiens, THP-1, 18 h): 110 nM
IC50 (human LXRα): 277 nM
IC50 (human LXRβ): 33 nM
